Laboratory results from patent US6831079B1, “Vasopressin agonist formulation and process” (American Cyanamid Company, priority 1999, dated 2004).

Target: Vasopressin V2 (Rattus norvegicus, UniProt Q00788)
Assay: Vasopressin V2 agonist effects in normal conscious water-loaded rats
Format: in vivo
Parameters: from tissue; host or cells: whole living Sprague-Dawley rat; the receptor is the animal's own (renal, by own knowledge)
Settings: Sprague-Dawley (CD) rats; for Osmolality (% Increase): change in osmolality as percent of control; for Urine Volume (% decrease): vs. control
Source text: Vasopressin V2 Agonist Effects of Test Compounds in Normal Conscious Water-loaded Rats
Male or female normotensive Sprague-Dawley rats (Charles River Laboratories, Inc., Kingston, N.Y.) of 350-500 g body weight were supplied with standard rodent diet (Purina Rodent Lab. Chow 5001) and water ad libitum. On the day of test, rats were placed individually into metabolic cages equipped with devices to separate the feces from the urine and containers for collection of urine. […] The vehicle used was 20% dimethylsulfoxide (DMSO) in 2.5% preboiled corn starch. Thirty minutes after dosing the test compound, rats were gavaged with water at 30 ml/kg into the stomach using a feeding needle. During the test, rats were not provided with water or food. Urine was collected for four hours after dosing of the test compound. At the end of four hours, urine volume was measured. Urinary osmolality was determined using a Fiske One-Ten Osmometer (Fiske Associates, Norwood, Mass., 02062) or an Advanced CRYOMATIC Osmometer, Model 3C.2 (Advanced Instruments, Norwood, Mass.). Determinations of Na^+, K^+ and Cl^− ion were carried out using ion specific electrodes in a Beckman SYNCHRON EL-ISE Electrolyte System analyzer. The urinary osmolality should increase proportionally. In the screening test, two rats were used for each compound. If the difference in the urine volume of the two rats was greater than 50%, a third rat was used.

[1] = 10 mg/kg oral, urine collected four hours

Chain of Vasopressin V2 (Q00788 whole entry): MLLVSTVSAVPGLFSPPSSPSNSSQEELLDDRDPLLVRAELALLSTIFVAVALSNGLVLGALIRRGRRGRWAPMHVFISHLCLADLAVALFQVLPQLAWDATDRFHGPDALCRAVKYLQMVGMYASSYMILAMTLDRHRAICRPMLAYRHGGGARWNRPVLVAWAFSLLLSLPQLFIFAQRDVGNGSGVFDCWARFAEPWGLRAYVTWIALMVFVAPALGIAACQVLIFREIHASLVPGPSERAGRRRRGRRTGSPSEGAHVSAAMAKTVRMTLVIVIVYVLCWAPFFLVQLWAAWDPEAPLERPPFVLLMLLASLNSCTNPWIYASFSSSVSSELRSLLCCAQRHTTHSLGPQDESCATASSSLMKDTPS

Structure (SMILES) | Osmolality (% Increase) (1 mg/kg) | Urine Volume (% decrease) (1 mg/kg) | Osmolality (% Increase) (10 mg/kg oral) [%] | Urine Volume (% decrease) [1] [%]
Cc1cnn(-c2ncc(C(=O)N3Cc4cccn4Cc4ccccc43)c(C(F)(F)F)n2)c1 [Example 21, [2-(4-Methyl-pyrazol-1-yl)-4-trifluoromethyl-pyrimidin-5-yl]-(5H,11H-pyrrolo[2,1-c][1,4]benzodiazepin-10-yl)-methanone] | – | – | 181 | 49
CC(=O)c1ccc(C(=O)N2Cc3cccn3Cc3ccccc32)cc1 [Example 22, 1-[4-(5H,11H-Pyrrolo[2,1-c][1,4]benzodiazepine-10-carbonyl)-phenyl]-ethanone] | – | – | 322 | 80
O=C(c1ccc(-c2cc[nH]n2)cc1)N1Cc2cccn2Cc2ccccc21 [Example 24, [4-(1H-Pyrazol-3-yl)-phenyl]-(5H,11H-pyrrolo[2,1-c][1,4]benzodiazepin-10-yl)-methanone] | – | – | 159 | 47
CCCn1ccc(-c2ccc(C(=O)N3Cc4cccn4Cc4ccccc43)cc2)n1 [Example 27, [4-(1-Propyl-1H-pyrazol-3-yl)-phenyl]-(5H,11H-pyrrolo[2,1-c][1,4]-benzodiazepin-10-yl)-methanone] | – | – | 183 | 76
CCCCn1ccc(-c2ccc(C(=O)N3Cc4cccn4Cc4ccccc43)cc2)n1 [Example 28, [4-(1-Butyl-1H-pyrazol-3-yl)-phenyl]-(5H,11H-pyrrolo[2,1-c][1,4]-benzodiazepin-10-yl)-methanone] | – | – | 37 | 75
COCn1ccc(-c2ccc(C(=O)N3Cc4cccn4Cc4ccccc43)cc2)n1 [Example 29, [4-(1-methoxymethyl-1H-pyrazol-3-yl)-phenyl]-(5H,11H-pyrrolo[2,1-c][1,4]-benzodiazepin-10-yl)-methanone] | – | – | 305 | 66
CCC(=O)n1ccc(-c2ccc(C(=O)N3Cc4cccn4Cc4ccccc43)cc2)n1 [Example 31, 1-{3-[4-(5H,11H-Pyrrolo[2,1-c][1,4]benzodiazepine-10-carbonyl)-phenyl]-pyrazol-1-yl}-propan-1-one] | – | – | 298 | 72
O=C(c1ccc(-c2ccn(C(=O)C3CC3)n2)cc1)N1Cc2cccn2Cc2ccccc21 [Example 32, [4-(1-Cyclopropanecarbonyl-1H-pyrazol-3-yl)-phenyl]-(5H,11H-pyrrolo[2,1-c][1,4]benzodiazepin-10-yl)-methanone] | – | – | 373 | 77
Cc1ccc(F)cc1C(=O)n1ccc(-c2ccc(C(=O)N3Cc4cccn4Cc4ccccc43)cc2)n1 [Example 35, {4-[1-(5-Fluoro-2-methyl-benzoyl)-1H-pyrazol-3-yl]-phenyl}-(5H,11H-pyrrolo[2,1-c][1,4]benzodiazepin-10-yl)-methanone] | – | – | 308 | 63
O=C(c1ccc(-c2ccn(C(=O)Cc3ccc(Cl)cc3Cl)n2)cc1)N1Cc2cccn2Cc2ccccc21 [Example 39, 2-(2,4-Dichloro-phenyl)-1-{3-[4-(5H,11H-pyrrolo[2,1-c][1,4]benzodiazepine-10-carbonyl)-phenyl]-pyrazol-1-yl}-ethanone] | – | – | 253 | 69
O=C(c1ccc(-c2ccn(C(=O)c3ccccc3-c3ccccc3)n2)cc1)N1Cc2cccn2Cc2ccccc21 [Example 40, {4-[1-(Biphenyl-2-carbonyl)-1H-pyrazol-3-yl]-phenyl}-(5H,11H-pyrrolo[2,1-c][1,4]benzodiazepin-10-yl)-methanone] | – | – | 183 | 46
O=C(c1ccc(-c2ccn(C(=O)c3ccccc3-c3ccc(C(F)(F)F)cc3)n2)cc1)N1Cc2cccn2Cc2ccccc21 [Example 41, {4-[1-(4′-Trifluoromethyl-biphenyl-2-carbonyl)-1H-pyrazol-3-yl]-phenyl}-(5H,11H-pyrrolo[2,1-c][1,4]benzodiazepin-10-yl)-methanone] | – | – | 240 | 69

Next, values leading:

Osmolality (% Increase) (1 mg/kg) | Urine Volume (% decrease) (1 mg/kg) | Osmolality (% Increase) (10 mg/kg oral) [%] | Urine Volume (% decrease) [1] [%] | Structure (SMILES)
306% (1 mg/kg) | 80% (1 mg/kg) | – | – | Cc1ccn(-c2ccc(C(=O)N3Cc4cccn4Cc4ccccc43)c(C(F)(F)F)c2)n1 [Example 2, [4-(3-Methyl-pyrazol-1-yl)-2-trifluoromethyl-phenyl](5H,11H-pyrrolo[2,1-c]-[1,4]benzodiazepin-10-yl)-methanone]
– | – | 240 | 58 | Cc1cnn(-c2ccc(C(=O)N3Cc4cccn4Cc4ccccc43)c(C(F)(F)F)c2)c1 [Example 3, [4-(4-Methyl-pyrazol-1-yl)-2-trifluoromethyl-phenyl]-(5H,11H-pyrrolo[2,1-c][1,4]benzodiazepin-10-yl)-methanone]
– | – | 225 | 57 | O=C(c1ccc(-n2cccn2)cc1C(F)(F)F)N1Cc2cccn2Cc2ccccc21 [Example 4, (4-Pyrazol-1-yl-2-trifluoromethyl-phenyl)-(5H,11H-pyrrolo[2,1-c][1,4]benzodiazepin-10-yl)-methanone]
– | – | 231 | 56 | O=C(c1ccc(-n2ccc(C3CC3)n2)cc1C(F)(F)F)N1Cc2cccn2Cc2ccccc21 [Example 5, [4-(3-Cyclopropyl-pyrazol-1-yl)-2-trifluoromethy-phenyl]-(5H,11H-pyrrolo[2,1-c][1,4]benzodiazepin-10-yl)-methanone]
– | – | 270 | 58 | Cc1cn(-c2ccc(C(=O)N3Cc4cccn4Cc4ccccc43)c(C(F)(F)F)c2)cn1 [Example 6, [4-(4-Methyl-imidazol-1-yl)-2-trifluoromethyl-phenyl]-(5H,11H-pyrrolo[2,1-c][1,4]benzodiazepin-10-yl)-methanone]
– | – | 137 | 13 | O=C(c1ccc(-n2cncn2)cc1C(F)(F)F)N1Cc2cccn2Cc2ccccc21 [Example 7, (5H,11H-Pyrrolo[2,1-c][1,4]benzodiazepin-10-yl)-(4-[1,2,4]triazol-1-yl-2-trifluoromethylphenyl)-methanone]
– | – | 168 | 21 | Cc1ccnn1-c1ccc(C(=O)N2Cc3cccn3Cc3ccccc32)c(Cl)c1 [Example 9B]
– | – | 285 | 70 | Cc1cnn(-c2ccc(C(=O)N3Cc4cccn4Cc4ccccc43)c(Cl)c2)c1 [Example 11]
– | – | 330 | 69 | Cc1cn(-c2ccc(C(=O)N3Cc4cccn4Cc4ccccc43)c(Cl)c2)cn1 [Example 12, [2-Chloro-4-(4-methyl-imidazol-1-yl)-phenyl]-(5H,11H-pyrrolo[2,1-c][1,4]benzodiazepin-10-yl)-methanone]
– | – | 229 | 50 | O=C(c1ccc(-n2ccc(C(F)(F)F)n2)cc1Cl)N1Cc2cccn2Cc2ccccc21 [Example 13, [2-Chloro-4-(3-trifluoromethyl-pyrazol-1-yl)-phenyl]-(5H,11H-pyrrolo[2,1-c][1,4]benzodiazepin-10-yl)-methanone]
– | – | 406 | 86 | O=C(c1ccc(-n2cncn2)cc1Cl)N1Cc2cccn2Cc2ccccc21 [Example 14, [2-Chloro-4-(1,2,4-triazol-1-yl)-phenyl]-(5H,11H-pyrrolo[2,1-c][1,4]benzodiazepin-10-yl)-methanone]
– | – | 38 | 47 | O=C(c1ccc(-n2cccc2)cc1Cl)N1Cc2cccn2Cc2ccccc21 [Example 15, (2-Chloro-4-pyrrol-1-yl-phenyl)-(5H,11H-pyrrolo[2,1-c][1,4]benzodiazepin-10-yl)-methanone]
– | – | 400 | 88 | O=C(c1ccc(-n2cccn2)cc1Cl)N1Cc2cccn2Cc2ccccc21 [Example 16, (2-Chloro-4-pyrazol-1-yl-phenyl)(5H,11H-Pyrrolo[2,1-c][1,4]benzodiazepin-10-yl)-methanone]
152% (1 mg/kg) | 25% (1 mg/kg) | – | – | Cc1ccn(-c2ncc(C(=O)N3Cc4cccn4Cc4ccccc43)c(C(F)(F)F)n2)n1 [Example 20, [2-(3-Methyl-pyrazol-1-yl)-4-trifluoromethyl-pyrimidin-5-yl]-(5H,11H-pyrrolo[2,1-c][1,4]benzodiazepin-10-yl)-methanone]
– | – | 979 | 87 | Cn1ccc(-c2ccc(C(=O)N3Cc4cccn4Cc4ccccc43)cc2)n1 [Example 25, [4-(1-Methyl-1H-pyrazolyl-3-yl)-phenyl]-(5H,11H-pyrrolo[2,1-c][1,4]-benzodiazepin-10-yl)-methanone]
– | – | 279 | 54 | CCn1ccc(-c2ccc(C(=O)N3Cc4cccn4Cc4ccccc43)cc2)n1 [Example 26, [4-(1-Ethyl-1H-pyrazol-3-yl)-phenyl]-(5H,11H-pyrrolo[2,1-c][1,4]-benzodiazepin-10-yl)-methanone]
